# Measurements reported in patent US10188630B2, “Methods for identifying and using inhibitors of casein kinase 1 epsilon isoform for inhibiting the growth and/or proliferation of MYC-driven tumor cells” (Fred Hutchinson Cancer Research Center, priority 2010, dated 2019).
# Key:
# [1] = Cell viability with increasing IC261, normal c-MYC expressing cells; type: cell-based; settings: human; IC261 at 0.5 log μM and above
# Description: The effect of CSNK1ε on the cell viability of ovarian cancer lines was investigated in vitro. First, HFF (non-cancer primary cells) with control vector, RMG-1 (normal c-MYC expressing), CaOV3 (normal c-MYC expressing), HFF with cMYC induced (amplified c-MYC expressing), TOV112D (amplified c-MYC expressing), and COLO720E (amplified c-MYC expressing) were exposed to increasing concentrations of IC261. Cell viability was assessed as described above.
# [2] = test system: IMR-32 neuroblastoma cells (amplified MYCN expression); experiment: Cell viability of neuroblastoma cells treated with IC261; type: cell-based
# Description: Lentiviral vectors expressing Dox-inducible shRNAs targeting CSNK1ε were transduced into SK-N-AS, a neuroblastoma line with normal MYCN expression, and SK-N-BE2 and IMR-32, neuroblastoma lines with amplified MYCN expression. Expression of the shRNAs were induced with Dox and cell viability was assayed after four days using the CellTiter Glo assay (Promega, Madison, Wis.).
# To evaluate the therapeutic potential of CSNK1ε kinase inhibitors for the inhibition of tumor cell growth, the kinase function of CSNK1ε polypeptide was blocked with IC261, a small molecule inhibitor of CSNK1ε and d kinase activity (Mashhoon, N., et al., “Crystal Structure of a Conformation-Selective Casein Kinase-1 Inhibitor,” J Biol Chem 275:20052-20060, 2000). Specifically, the sensitivity of MYC overexpressing cells to IC261 relative to control, was determined in vitro utilizing the neuroblastoma cell lines SK-N-AS (normal MYCN expression) and IMR-32 (amplified MYCN expression). Cultured cells were treated with a range of concentrations of IC261 and percent of cell viability was recorded over four days as described above. […] The difference in cell viability was significant at the 1, 5 and 10 μM concentrations.
# [3] = test system: A2780 ovarian cancer cells; experiment: Cell viability with cisplatin in presence or absence of IC261; type: cell-based; settings: 1 μM IC-261 with increasing doses of cisplatin
# From the text: (§1) Cisplatin, or cis-diamminedichloroplatinum(II) (CDDP), is a chemotherapy drug commonly used to treat numerous types of cancers including ovarian cancer. Cisplatin contains platinum complexes that crosslink DNA, ultimately triggering apoptosis of the cell. However, many treated cancer relapse and display a resistance to cisplatin. Considering the ability of CSNK1ε inhibitors to reduce viability of cells with amplified c-MYC expression, a similar role of CSNK1ε inhibitors on cisplatin resistant cancer cells was investigated. A2780 and A2780-CP70 (resistant derivative), PEO1 and PEO4 (resistant derivative of PE01) ovarian cancer cell lines were cultured in the presence of increasing doses of cisplatin and the presence or absence of IC261. Cell viability was monitored as described above. […] It is noted that the c-MYC expression level in A2780 cells is yet undetermined.
# [4] = test system: PEO1 ovarian cancer cells; experiment: as above; type: cell-based; settings: 1 μM IC-261 with low doses of cisplatin
# From the text: as §1
# [5] = test system: A2780-CP70 (cisplatin-resistant) ovarian cancer cells; experiment: as above; type: cell-based; settings: 1 μM IC-261 with increasing doses of cisplatin
# From the text: as §1
# [6] = test system: IMR-32 (amplified MYCN expression) xenograft blastoma tumors; experiment: IMR-32 neuroblastoma xenograft in NOD/SCID mice; type: in vivo
# Description: To evaluate the therapeutic potential of CSNK1ε kinase inhibitors, IC261, a small molecule inhibitor of CSNK1ε and d kinase activity (Mashhoon, N., et al., “Crystal Structure of a Conformation-Selective Casein Kinase-1 Inhibitor,” J Biol Chem 275:20052-20060, 2000) was administered to mice with established IMR-32 (amplified MYCN expression) xenograft blastoma tumors. Specifically, 10 NOD/SCID mice were injected with 1×10^7 IMR-32 blastoma cells. The tumors were allowed to establish for 6 weeks. The mice were randomized into control and IC261 treatment groups. At the start of treatment, the average tumor size for the control mice was 98.8±42.5 mm^3, whereas the average tumor size for the IC261 treatment group was 121.9±46.9 mm^3. The groups were subcutaneously injected once daily for seven days with 20.5 mg/kg of IC261 or DMSO in 200 μl. During treatment, the tumor size was monitored. […] However, at day three the average tumor volume of the IC261-treated mice was reduced, a trend that continued throughout the remaining treatment schedule, ultimately to a volume of about 100 mm^3. In contrast, the tumor volume of the DMSO-treated mice continued to increase to a volume of about 350 mm^3. Histological sections of tumors from each group were prepared after the 8th day of IC261 treatment. The tumor sections were subjected to hematoxylin and eosin (H-E) stain, TUNEL stain, and BrdU staining to ascertain the cell structure, and frequencies of cell apoptosis, and cell proliferation within the tumors. […] The images shown in FIG. 7D are representative of at least 10 fields viewed over two stained sections per animal.
# [7] = test system: WNT signaling (β-catenin reporter) in Tet-21N neuroblastoma cells; experiment: Integrated WNT reporter in Tet-21N neuroblastoma cells; type: cell-based; settings: MYCN-on cells
# Description: CSNK1ε has been implicated as a positive regulator of WNT signaling (Sakanaka, C., “Phosphorylation and Regulation of Beta-Catenin by Casein Kinase I Epsilon,” J Biochem 132:697-703, 2002). To determine the functional status of WNT activity in neuroblastoma cells with or without amplified MYCN expression, a WNT dual reporter system, employing both consensus (TOP) and mutant (FOP) TCF binding sites was assayed in neuroblastoma cell lines SK-N-AS (MYCN not amplified), SH-Sy5Y (MYCN not amplified), IMR-32 (MYCN amplified and overexpressed), and SK-N-BE2 (MYCN amplified and overexpressed), as described in (Biechele, T. L., et al., “Transcription-Based Reporters of Wnt/beta-Catenin Signaling,” Cold Spring Harb Protoc 2009, pdb prot5223).
# A potential direct connection of WNT with MYCN expression was explored utilizing neuroblastoma cells expressing an inducible Tet-MYCN gene. Tet-21N neuroblastoma cells (normal MYCN expression) carrying a Tet-off-MYCN gene, were treated with or without Dox (a tetracycline compound), as described supra. […] Further, the WNT activity was assayed through the detectable activity of an integrated WNT reporter.
smiles,measurement,setting,value
COc1cc(OC)c(/C=C2/C(=O)Nc3ccccc32)c(OC)c1 [IC261],viability,[1],≥ 75%
same,"percent cell viability, IMR-32 compared to SK-N-AS","[2]; 48 hours, IC261 0.33 μg/ml and higher",lower percent cell viability
same,"difference in cell viability, IMR-32 vs SK-N-AS",[2]; 72 hours,significant difference in cell viability
same,"difference in cell viability, IMR-32 vs SK-N-AS","[2]; 96 hours, higher doses",not statistically significant
same,response to cisplatin (cell viability),[3],greatly sensitized
same,cell viability with low doses of cisplatin,[4],large reduction in cell viability
same,response to cisplatin (cell viability),[5],greatly sensitized
same,average tumor volume at end of treatment schedule,[6]; 20.5 mg/kg subcutaneously once daily for seven days,about 100 mm^3
same,cell proliferation in tumor sections (BrdU stain) vs DMSO control,[6]; after the 8th day of IC261 treatment,drastically reduced indications of cell proliferation
same,average tumor volume,"[6]; day three of treatment, 20.5 mg/kg s.c. daily",reduced
same,tumor volume vs DMSO-treated mice,"[6]; first two days of treatment, 20.5 mg/kg s.c. daily",no significant difference
same,WNT reporter (β-catenin signal),[7],repression of the WNT reporter
